# Patent publication US20150290105A1, “COMPOSITION COMPRISING SYRINGARESINOL FOR IMPROVING THE SKIN” (AMOREPACIFIC CORPORATION, priority 2011, published 2015)
# Experiments:
# [1] = test system: Melanocytes (Mel-Ab cells); assay: Melanin production inhibiting effect in mouse melanocytes; format: cell-based; conditions: Mus musculus, Mel-Ab; read-out: Melanin production inhibiting rate (%)
# Method: The melanin production inhibiting effect of the syringaresinol obtained in Example was evaluated using mouse melanocytes. First, melanocytes (Mel-Ab cells) derived from C57BL/6 (treated with Dooley et al.'s method) were cultured under the condition of 37° C. and 5% CO2 in Dulbecco's modified Eagle's medium (DMEM) containing 10% fetal bovine serum, 100 nM 12-O-tetradecanoylphorbol-13-acetate and 1 nM cholera toxin. […] After removing the culture medium and washing with PBS, the cells were dissolved with 1 N sodium hydroxide and absorbance was measured at 400 nm. Melanin production inhibiting rate (%) was calculated according to Equation 2 from the measured absorbance. Melanin production inhibiting rate (%)=100−(Absorbance of test substance) /(Absorbance of control substance)×100 [Equation 2]
# [2] = Skin whitening effect when applied to UVB-tanned human skin; format: in vivo; conditions: 1% applied on upper arm after UVB, 10 weeks, 12 male subjects
# Method: First, opaque tapes having holes of 1.5 cm in diameter were attached on the upper arms of 12 healthy male subjects and UVB of about 1.5-2 times the minimal erythemal dose was irradiated to each subject to induce skin tanning. […] Then, the change was monitored for 10 weeks. The color of the skin was measured with 1-week interval using the CR2002 colorimeter (Minolta, Japan). The change in skin color (ΔL*) between the time when the test substance was applied and the time when the test was completed was calculated according to Equation 3. Skin whitening effect is evaluated by comparing the ΔL* of the part where the test substance was applied with that of the control part. A ΔL* value of about 2 can be interpreted as distinct skin whitening effect and one about 1.5 can be evaluated as positive skin whitening effect.
# ΔL*=(L* when test was completed)−(L* when test substance was applied) [Equation 3]
# [3] = test system: mushroom-derived tyrosinase; assay: Tyrosinase activity inhibiting effect (dopachrome formation); format: biochemical; conditions: 10 ppm, 37° C. 10 minutes
# Method: The reaction solution was prepared by adding 500 μL of 0.1 M PBS, 15 μg of L-tyrosine and 50 μL of syringaresinol and then adding distilled water to make the final volume 1500 μL. A solution prepared through the same procedure but with Kojic acid instead of syringaresinol was used as a positive control. The concentration of all the samples used in experiment was set to 10 ppm. After adding 10 units of mushroom-derived tyrosinase to the reaction solution, followed by reaction at 37° C. for 10 minutes, the reaction was stopped by quickly transferring onto ice for 5 minutes. The synthesis rate of dopachrome produced was determined by measuring absorbance at 475 nm and tyrosinase activity inhibiting rate (%) was calculated therefrom.
# [4] = Skin whitening effect when orally administered, UV-irradiated brown guinea pig; format: in vivo; conditions: 1% in feed, 5 weeks, oral
# Method: Minimal erythemal dose was measured after irradiating UV to guinea pigs. After grouping the guinea pigs with 10 per each group, UV of the minimal erythemal dose was irradiated once a day, for a total of 3 times. The guinea pigs were allowed free access to feed for 5 weeks. The feed contained 1% syringaresinol or 1% vitamin C (Vit C) as a positive control. Skin pigmentation was measure using a colorimeter in substantially the same manner as in Test Example 6.
compound,measurement,setting,value
"Oc1ccc(O)cc1 [Hydroquinone, hydroquinone, reference compound]",inhibition at 10 ppm,[1],58.9%
same,Change in skin brightness (ΔL*),[2],1.71 ± 0.31
"O=c1cc(CO)occ1O [Kojic acid, reference compound]",Tyrosinase activity inhibiting rate (%),[3],67.8%
"O=C1O[C@H]([C@@H](O)CO)C(O)=C1O [Vitamin C, vitamin C, reference compound]",Skin color brightness (ΔL*),[4],1.48 ± 0.71
